Read-outs that look alike come from different tables or passages of the source.
Key:
[1] = system: TRPM4; assay: Agonist-induced TRPM4 currents in TrexHEK293 cells overexpressing TRPM4 (double carbachol application); assay type: cell-based, human
Description: Patch-clamp experiments were performed in the tight-seal whole-cell configuration at 21-25 ° C. High-resolution current recordings were acquired by a computer-based patch-clamp amplifier system (EPC-9, HEKA, Lambrecht, Germany). Patch pipettes had resistance between 3-6 MΩ after filling with the standard intracellular solution. […] Currents were filtered at 2.9 kHz and digitized at 100 μs intervals. Capacitive currents and series resistance were determined and corrected before each voltage ramp using the automatic capacitance compensation of the EPC-9. The low-resolution temporal development of membrane currents was assessed by extracting the current amplitude at -80 mV or +80 mV from individual ramp current records. Data analysis, statistical analysis and graphical display of patch-clamp experiments were done using the Igor […] software program (Wavemetrics). […] Cells were treated with carbachol twice according to protocol used in the calcium measurement experiments (n=5). First, to induce exocytosis of TRPM4 containing vesicles and second to activate the new pool of TRPM4 present in the plasma membrane. Utilizing Ca^2+ imaging techniques, fura-2-AM loaded cells were stimulated with 1 mM carbachol for 200 s followed by washout and a second stimulation (FIG. 9A). […]

[2] = target: T1, TRPM4 (Rattus norvegicus, UniProt Q9ESQ5); assay: Whole-cell patch-clamp of TRPM4 currents in INS-1 cells perfused with buffered [Ca2+]i; assay type: cell-based; parameters: The channel was detected in INS-1 and RINm5F cell lines; endogenous in cells; host or cells: INS-1 (rat insulinoma beta-cell line); settings: current amplitude at +80 mV
[3] = target: T2, TRPM4 (Homo sapiens, UniProt Q8TD43); assay: Whole-cell patch-clamp of TRPM4 currents in TrexHEK-293 cells overexpressing TRPM4, buffered [Ca2+]i; assay type: cell-based; settings: flag-TRPM4-TrexHEK293, current at +80 mV
T2 construct: expressed in transfected cells; host or cells: TrexHEK-293 (tetracycline-inducible HEK-293)

[4] = target: T1, TRPM4; assay: Glibenclamide on TRPM4 currents in INS-1 cells; settings: pressure applied
[5] = 600 s, read-out: KD, dose-response fit of TRPM4 activation, secondary phase

T1 sequence (Q9ESQ5 whole entry, the tested form may be a part): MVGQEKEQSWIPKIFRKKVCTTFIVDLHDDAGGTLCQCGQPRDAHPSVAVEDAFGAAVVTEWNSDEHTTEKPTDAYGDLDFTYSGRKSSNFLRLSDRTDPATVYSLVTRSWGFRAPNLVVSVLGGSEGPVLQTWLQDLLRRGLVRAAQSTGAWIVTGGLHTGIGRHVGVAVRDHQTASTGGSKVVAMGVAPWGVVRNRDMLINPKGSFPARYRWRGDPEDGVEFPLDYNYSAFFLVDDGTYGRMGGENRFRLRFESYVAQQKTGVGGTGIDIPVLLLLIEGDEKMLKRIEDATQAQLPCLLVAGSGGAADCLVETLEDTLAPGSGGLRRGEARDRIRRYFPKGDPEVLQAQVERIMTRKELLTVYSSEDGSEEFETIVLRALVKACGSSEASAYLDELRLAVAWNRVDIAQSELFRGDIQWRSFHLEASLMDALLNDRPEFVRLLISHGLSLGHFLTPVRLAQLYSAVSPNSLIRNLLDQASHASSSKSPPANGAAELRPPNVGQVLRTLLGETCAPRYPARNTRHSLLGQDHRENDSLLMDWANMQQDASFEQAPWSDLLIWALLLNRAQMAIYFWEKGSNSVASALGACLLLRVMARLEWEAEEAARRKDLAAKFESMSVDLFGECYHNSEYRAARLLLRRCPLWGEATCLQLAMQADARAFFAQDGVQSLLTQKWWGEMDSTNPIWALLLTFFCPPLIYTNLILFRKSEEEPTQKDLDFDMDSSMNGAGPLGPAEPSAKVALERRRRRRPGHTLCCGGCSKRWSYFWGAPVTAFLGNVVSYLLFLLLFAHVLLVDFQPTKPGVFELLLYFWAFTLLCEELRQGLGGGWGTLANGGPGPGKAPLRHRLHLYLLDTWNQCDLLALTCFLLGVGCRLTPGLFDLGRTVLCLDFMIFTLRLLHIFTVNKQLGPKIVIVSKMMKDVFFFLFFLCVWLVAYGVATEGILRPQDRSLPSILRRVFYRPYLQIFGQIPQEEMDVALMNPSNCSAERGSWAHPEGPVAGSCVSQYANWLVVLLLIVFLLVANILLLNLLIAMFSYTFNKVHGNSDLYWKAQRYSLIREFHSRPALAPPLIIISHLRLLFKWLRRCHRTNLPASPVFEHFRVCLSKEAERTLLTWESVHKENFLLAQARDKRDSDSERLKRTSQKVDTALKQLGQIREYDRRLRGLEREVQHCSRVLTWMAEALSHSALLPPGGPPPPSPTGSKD
T2 sequence (Q8TD43 whole entry): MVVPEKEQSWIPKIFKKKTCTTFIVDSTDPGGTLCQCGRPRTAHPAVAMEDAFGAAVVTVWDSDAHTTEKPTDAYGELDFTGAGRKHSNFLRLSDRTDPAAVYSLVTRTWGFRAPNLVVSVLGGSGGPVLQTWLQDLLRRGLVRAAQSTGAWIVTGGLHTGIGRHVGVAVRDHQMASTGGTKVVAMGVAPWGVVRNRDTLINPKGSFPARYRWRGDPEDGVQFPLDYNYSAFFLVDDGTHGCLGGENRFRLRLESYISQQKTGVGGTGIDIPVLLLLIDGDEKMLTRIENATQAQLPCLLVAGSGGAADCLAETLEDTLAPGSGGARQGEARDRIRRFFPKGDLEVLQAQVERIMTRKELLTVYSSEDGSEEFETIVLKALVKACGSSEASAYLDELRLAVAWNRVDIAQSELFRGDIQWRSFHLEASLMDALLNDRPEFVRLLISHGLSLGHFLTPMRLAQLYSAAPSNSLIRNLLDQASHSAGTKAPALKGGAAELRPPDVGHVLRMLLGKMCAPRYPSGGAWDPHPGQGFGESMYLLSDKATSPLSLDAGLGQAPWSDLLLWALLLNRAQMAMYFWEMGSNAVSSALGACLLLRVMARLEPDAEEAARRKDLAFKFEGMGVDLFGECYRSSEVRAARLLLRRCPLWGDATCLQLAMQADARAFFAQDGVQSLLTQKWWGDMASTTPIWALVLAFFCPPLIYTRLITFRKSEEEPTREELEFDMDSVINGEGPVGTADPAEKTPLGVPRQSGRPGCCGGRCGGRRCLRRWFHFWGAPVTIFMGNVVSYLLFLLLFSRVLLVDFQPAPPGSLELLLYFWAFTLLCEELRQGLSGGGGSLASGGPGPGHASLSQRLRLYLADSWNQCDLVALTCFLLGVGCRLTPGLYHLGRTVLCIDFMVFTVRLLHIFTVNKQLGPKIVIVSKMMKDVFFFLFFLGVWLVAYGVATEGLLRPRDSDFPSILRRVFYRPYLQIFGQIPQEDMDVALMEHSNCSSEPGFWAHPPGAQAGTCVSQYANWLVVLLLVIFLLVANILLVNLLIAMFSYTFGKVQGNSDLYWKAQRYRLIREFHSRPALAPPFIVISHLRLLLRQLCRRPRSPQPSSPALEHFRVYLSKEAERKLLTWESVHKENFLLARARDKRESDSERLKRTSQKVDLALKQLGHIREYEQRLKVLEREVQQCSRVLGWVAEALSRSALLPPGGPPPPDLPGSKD

With C[N+](C)(C)CCOC(N)=O [carbachol] the TRPM4 current amplitude ([1]; first application of 1 mM carbachol) was “less than 1 nA” and the TRPM4 current amplitude ([1]; second carbachol application after washout) was “around 10 nA”.
In the case of [Ca+2] [Ca^2+], the Kd ([2]; 80 s, read-out: KD, dose-response fit of TRPM4 activation, first phase) is reported as 1.7 µM, the Kd [2, 5] is reported as 1.2 µM and the Kd [3, 5] is reported as 1.3 µM. For the same compound, the Kd ([3]; peak of first phase, read-out: KD, dose-response fit of TRPM4 activation, first phase) was 1.2 µM.
In the case of COc1ccc(Cl)cc1C(=O)NCCc1ccc(S(=O)(=O)NC(=O)NC2CCCCC2)cc1 [Glibenclamide, glibenclamide], the “effect on TRPM4 channels” value [4] is reported as “activates TRPM4 channels”.

Reference: patent US8148083B2, “Methods of screening for TRPM4 modulators of insulin secretion” (The Queen's Medical Center, priority 2006, dated 2012)
